What was measured:
Type in all cases: in vivo
[1] = tested on: winter wheat (Vershin variety); test: Winter wheat seed treatment with BHMPA salts: germination energy and germination rate
Description: (§1) Control—Soaking Seeds in Water;
(§2) Experimental versions—soaking seeds in BHMPA solutions and solutions of BHMPA Ca, Mg, Na, Co, Mn, Cu, and Zn salts at 1·10^−6-1·10^−12% concentrations (doses). The studies were conducted in laboratory in Petri dishes; seed bed—two layers of filter paper. 50 seeds soaked in water (control) and in the solutions of the tested compounds (experimental) were placed into each dish. Wheat, corn, and rice seeds were exposed for one hour.
(§3) Analysis was conducted according to the government standards GOST 12038-84 “Crop seeds. Technical conditions for determining the germination energy and germination rate”, GOST 12044-93 “Crop seeds. Methods for determining disease contamination.”
(§4) Seed germination energy and rate were calculated in percent as an arithmetic mean of the four experimental results (germination energy on the 4th day, wheat germination on the 8th day, rice and corn germination—on the 7th day). Germination was determined based on the germinating power indicators (length of the roots and sprouts and their wet and dry mass per 100 shoots).
(§5) The effect of pre-sowing seed treatment with the claimed BHMPA salts of biogenic metals was studied on winter wheat (Vershin variety), corn (Krasnodar 385 MV variety), and rice (Diamant variety).

rice (Diamant variety) = test: Rice seed treatment with BHMPA salts: germination energy and germination rate; details: for Germination energy / Germination rate: rice
Description: as §1, §2, §3, §4, §5

[2] = tested on: corn (Krasnodar 385 MV variety); test: Corn seed treatment with BHMPA salts: germinating power
Description: as §2, §4, §5
The above data describe the seed viability only at the initial stage of germination, while the germination ability at the later stage of germination is defined by the initial germinating power. The method for the determination of the germinating power comprises measuring the height of the sprouts and primary roots, as well as the biomass and the dry mass thereof per 100 seedlings. [M. A. Kartuzova. Initial Germinating Power as Method of Biological Assessment of Seed Quality. Selection and Seed Farming, #2, 1953].

[3] = winter wheat Vershin, 1·10^−6% solution
[4] = winter wheat Vershin, 1·10^−7% solution
[5] = winter wheat Vershin, 1·10^−8% solution
[6] = winter wheat Vershin, 1·10^−9% solution
[7] = winter wheat Vershin, 1·10^−10% solution
[8] = winter wheat Vershin, 1·10^−11% solution
[9] = winter wheat Vershin, 1·10^−12% solution
[10] = winter wheat, comparative study vs Melaphen, 1·10^−9% solution
[11] = rice seed treatment, solution 1 · 10^−10%
[12] = comparative study vs Melaphen, 1·10^−8% solution
[13] = corn seeds, solution concentration 1 · 10^−6%, zinc salt of BHMPA
[14] = corn seeds, solution concentration 1 · 10^−7%, zinc salt of BHMPA
[15] = corn seeds, solution concentration 1 · 10^−8%, zinc salt of BHMPA
[16] = corn seeds, solution concentration 1 · 10^−9%, zinc salt of BHMPA
[17] = corn seeds, solution concentration 1 · 10^−10%, zinc salt of BHMPA
[18] = corn seeds, solution concentration 1 · 10^−11%, zinc salt of BHMPA
[19] = corn seeds, solution concentration 1 · 10^−12%, zinc salt of BHMPA

O=P([O-])(CO)CO.O=P([O-])(CO)CO.[Zn+2] [Zn-salt, Zinc BHMPA Salt]
Germination energy [1, 3]: 91.9%
Germination rate [1, 3]: 95.3%
Germination energy [1, 4]: 92.7%
Germination rate [1, 4]: 96.0%
Germination energy [1, 5]: 94.1%
Germination rate [1, 5]: 97.3%
Germination energy [1, 6]: 96.1%
Germination rate [1, 6]: 98.3%
Germination energy [1, 7]: 95.4%
Germination rate [1, 7]: 97.3%
Germination energy [1, 8]: 93.2%
Germination rate [1, 8]: 96.0%
Germination energy [1, 9]: 92.3%
Germination rate [1, 9]: 96.0%
Germination energy [1, 10]: 94.0%
Germination rate [1, 10]: 97.3%
Germination energy, % (rice (Diamant variety); [11]): 89.5%
Germination rate, % (rice (Diamant variety); [11]): 96.5%
Germination energy (rice (Diamant variety); 1·10^−6% solution): 83.0%
Germination rate (rice (Diamant variety); 1·10^−6% solution): 89.0%
Germination energy (rice (Diamant variety); 1·10^−7% solution): 85.0%
Germination rate (rice (Diamant variety); 1·10^−7% solution): 91.7%
Germination energy (rice (Diamant variety); 1·10^−8% solution): 86.3%
Germination rate (rice (Diamant variety); 1·10^−8% solution): 94.3%
Germination energy (rice (Diamant variety); 1·10^−9% solution): 88.7%
Germination rate (rice (Diamant variety); 1·10^−9% solution): 96.0%
Germination energy (rice (Diamant variety); 1·10^−10% solution): 87.0%
Germination rate (rice (Diamant variety); 1·10^−10% solution): 94.0%
Germination energy (rice (Diamant variety); 1·10^−11% solution): 85.7%
Germination rate (rice (Diamant variety); 1·10^−11% solution): 91.3%
Germination energy (rice (Diamant variety); 1·10^−12% solution): 83.7%
Germination rate (rice (Diamant variety); 1·10^−12% solution): 89.0%
Germination energy (rice (Diamant variety); [12]): 89.5%
Germination rate (rice (Diamant variety); [12]): 96.5%
optimum concentration for treating corn seeds before sowing ([2]; corn): 1·10^−8%
Length, root [2, 13]: 5.3 cm
Length, root, + % to control [2, 13]: 13%
Length, sprout [2, 13]: 3.4 cm
Length, sprout, + % to control [2, 13]: 3%
Mass, dry, root [2, 13]: 1.17 g/100 plantlings
Mass, dry, root, + % to control [2, 13]: 12.5%
Mass, dry, sprout [2, 13]: 0.97 g/100 plantlings
Mass, dry, sprout, + % to control [2, 13]: 13%
Mass, wet, root [2, 13]: 6.98 g/100 plantlings
Mass, wet, root, + % to control [2, 13]: 8.5%
Mass, wet, sprout [2, 13]: 5.99 g/100 plantlings
Mass, wet, sprout, + % to control [2, 13]: 5%
Length, root [2, 14]: 5.6 cm
Length, root, + % to control [2, 14]: 19%
Length, sprout [2, 14]: 3.5 cm
Length, sprout, + % to control [2, 14]: 6%
Mass, dry, root [2, 14]: 1.30 g/100 plantlings
Mass, dry, root, + % to control [2, 14]: 25%
Mass, dry, sprout [2, 14]: 1.10 g/100 plantlings
Mass, dry, sprout, + % to control [2, 14]: 28%
Mass, wet, root [2, 14]: 7.46 g/100 plantlings
Mass, wet, root, + % to control [2, 14]: 16%
Mass, wet, sprout [2, 14]: 7.03 g/100 plantlings
Mass, wet, sprout, + % to control [2, 14]: 24%
Length, root [2, 15]: 5.9 cm
Length, root, + % to control [2, 15]: 25.5%
Length, sprout [2, 15]: 4.0 cm
Mass, dry, root [2, 15]: 1.36 g/100 plantlings
Mass, dry, sprout [2, 15]: 1.13 g/100 plantlings
Mass, wet, root [2, 15]: 8.18 g/100 plantlings
Mass, wet, sprout [2, 15]: 7.82 g/100 plantlings
Length, root [2, 16]: 5.8 cm
Length, root, + % to control [2, 16]: 23%
Length, sprout [2, 16]: 3.8 cm
Length, sprout, + % to control [2, 16]: 15%
Mass, dry, root [2, 16]: 1.19 g/100 plantlings
Mass, dry, root, + % to control [2, 16]: 14%
Mass, dry, sprout [2, 16]: 1.06 g/100 plantlings
Mass, dry, sprout, + % to control [2, 16]: 23%
Mass, wet, root [2, 16]: 7.39 g/100 plantlings
Mass, wet, root, + % to control [2, 16]: 15%
Mass, wet, sprout [2, 16]: 6.99 g/100 plantlings
Mass, wet, sprout, + % to control [2, 16]: 23%
Length, root [2, 17]: 5.5 cm
Length, root, + % to control [2, 17]: 15%
Length, sprout [2, 17]: 3.7 cm
Length, sprout, + % to control [2, 17]: 12%
Mass, dry, root [2, 17]: 1.13 g/100 plantlings
Mass, dry, root, + % to control [2, 17]: 9%
Mass, dry, sprout [2, 17]: 1.00 g/100 plantlings
Mass, dry, sprout, + % to control [2, 17]: 16%
Mass, wet, root [2, 17]: 6.96 g/100 plantlings
Mass, wet, root, + % to control [2, 17]: 8%
Mass, wet, sprout [2, 17]: 6.29 g/100 plantlings
Mass, wet, sprout, + % to control [2, 17]: 11%
Length, root [2, 18]: 5.2 cm
Length, root, + % to control [2, 18]: 11%
Length, sprout [2, 18]: 3.6 cm
Length, sprout, + % to control [2, 18]: 9%
Mass, dry, root [2, 18]: 1.10 g/100 plantlings
Mass, dry, root, + % to control [2, 18]: 6%
Mass, dry, sprout [2, 18]: 0.97 g/100 plantlings
Mass, dry, sprout, + % to control [2, 18]: 13%
Mass, wet, root [2, 18]: 6.81 g/100 plantlings
Mass, wet, root, + % to control [2, 18]: 6%
Mass, wet, sprout [2, 18]: 5.93 g/100 plantlings
Mass, wet, sprout, + % to control [2, 18]: 4%
Length, root [2, 19]: 4.8 cm
Length, root, + % to control [2, 19]: 2%
Length, sprout [2, 19]: 3.5 cm
Length, sprout, + % to control [2, 19]: 6%
Mass, dry, root [2, 19]: 0.93 g/100 plantlings
Mass, dry, root, + % to control [2, 19]: −10.5%
Mass, dry, sprout [2, 19]: 0.89 g/100 plantlings
Mass, dry, sprout, + % to control [2, 19]: 3%
Mass, wet, root [2, 19]: 6.47 g/100 plantlings
Mass, wet, root, + % to control [2, 19]: 1%
Mass, wet, sprout [2, 19]: 5.71 g/100 plantlings
Mass, wet, sprout, + % to control [2, 19]: 0.5%
Length, root, + % to control ([2]; corn, 1·10^−8% solution): 25.5%
Length, sprout, + % to control ([2]; corn, 1·10^−8% solution): 21%
Mass, dry, root, + % to control ([2]; corn, 1·10^−8% solution): 31%
Mass, dry, sprout, + % to control ([2]; corn, 1·10^−8% solution): 31%
Mass, wet, root, + % to control ([2]; corn, 1·10^−8% solution): 27%
Mass, wet, sprout, + % to control ([2]; corn, 1·10^−8% solution): 38%

— US10781224B2, “Bis(oxymethyl)phosphinic acid and biogenic metal salts thereof as regulators of plant growth and development” (priority 2016, dated 2020)
